For experiment [1], the system named is LDLR protein levels in HepG2 cells. Put plainly: Western blot analysis of relative LDLR protein levels in HepG2 cells after treatment. The class given is cell-based, human. Particulars: HepG2 cells incubated overnight with compound, 0.2 μM to 20 μM. The protocol:
Cell culture, treatments and cell viability assay. For phenotypic screening of PCSK9 modulators and/or LDLR small molecule inducers, human HepG2 cells were incubated overnight in conditioned media containing chemical compounds resuspended in DMSO at concentration ranging from 0.2 μM to 20 μM. […] Following incubation, media have been replaced and cells incubated for 4 h with 100 μL of phenol red-free DMEM containing 0.5 mg/mL of MTT (3-[4,5-dimethylthiazol-2-yl]-2,5-diphenyltetrazolium bromide; thiazolyl blue; catalog no. M5655, Sigma-Aldrich), following manufacturer's instructions.
Western Blot Analysis, Immunocytochemistry and LDLR Activity Assay. Following incubation, cells were washed three times in phosphate-buffered saline (PBS) and lysed in radioimmune precipitation assay buffer (50 mM Tris/HCl, pH 8.0, 1% (v/v) Nonidet P-40, 0.5% sodium deoxycholate, 150 mM NaCl, and 0.1% (v/v) SDS) supplemented with a complete protease inhibitor mixture (catalog no. 11 697 498 001, Roche Applied Science). Proteins were separated by SDS polyacrylamide gel electrophoresis, blotted on nitrocellulose membranes (Bio-Rad), blocked incubated with indicated antibodies as described (Poirier S, et al., Cell Rep, 2015). For immunocytochemistry analysis, cells were permeabilized or not with 0.1% Triton X-100/PBS for 10 min, and incubated with 150 mM glycine, blocked and incubated with indicated primary and secondary antibodies. Immunofluorescence analyses were performed with an Olympus FluoView FV10i confocal microscope (Poirier et al., Cell Rep. 2015; 13(10):2064-2071). For LDLR activity assay, HepG2 cells were incubated overnight without or with a given compound in the presence of 5 μg/ml fluorescent labelled DiI-LDL (Alfa Aesar, Cat. #J65330) and co-stained for LDLR if applicable, as described (Poirier et al., J Biol Chem. 2009; 284(42):28856-28864). Immunofluorescence analyses were performed with an Olympus FluoView FV10i confocal microscope.

Another experiment has as its target Biotinylated PCSK9 (Homo sapiens (Human), UniProt Q8NBP7). As to the kind of experiment: Binding affinity of SHIM compounds to PCSK9 by surface plasmon resonance spectroscopy (Biacore T200). The conditions noted are these: SPR, range tested 0.5-10 uM, 1:1 Langmuir model, NB = no binding detected in the tested range; for Kd: read-out: KD - equilibrium dissociation constant; for kon: read-out: ka - association rate constant; for koff: read-out: kd - dissociation rate constant. The method, then:
Studies of SHIM compounds—PCSK9 interactions. […] Biotinylated PCSK9 (ACRO Biosystems) at 1 μg/mL has been captured on a chip on which streptavidin has been immobilized with amine-directed chemistry according to the manufacturer's instructions (6000 RU) to a density of 6000 RU in PBS-P ([…], 0.005% Tween 20, pH7.4) buffer with 1% DMSO. SHIMs at 10, 3.3, 1.1, 0.33 and 0.11 uM were injected at 30 uL/min. […] Double reference method of analysis was used with the reference channel containing a reference biotinylated protein captured at 6000 RU.

SMILES strings stand for the structures.

Biotinylated PCSK9, sequence (Q8NBP7 153-692): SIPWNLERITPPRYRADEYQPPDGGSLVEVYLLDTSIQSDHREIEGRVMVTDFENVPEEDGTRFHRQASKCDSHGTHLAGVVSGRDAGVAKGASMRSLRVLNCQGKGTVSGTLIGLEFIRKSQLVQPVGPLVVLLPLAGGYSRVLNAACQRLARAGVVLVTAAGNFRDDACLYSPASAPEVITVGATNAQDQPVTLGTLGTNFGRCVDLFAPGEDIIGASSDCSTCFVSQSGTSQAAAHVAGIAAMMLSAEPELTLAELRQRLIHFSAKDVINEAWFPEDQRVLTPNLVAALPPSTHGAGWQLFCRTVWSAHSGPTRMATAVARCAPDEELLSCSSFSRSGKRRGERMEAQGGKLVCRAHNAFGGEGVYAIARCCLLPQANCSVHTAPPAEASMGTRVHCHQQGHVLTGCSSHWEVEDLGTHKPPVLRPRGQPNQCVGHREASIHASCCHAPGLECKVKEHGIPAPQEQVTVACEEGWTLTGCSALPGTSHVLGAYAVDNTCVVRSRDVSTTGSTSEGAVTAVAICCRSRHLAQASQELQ

As a reminder, the Kd is the equilibrium constant for the complex coming apart. In the case of `C[C@@]1(c2ccc3ccccc3c2)NC(=O)N(CC(=O)N2CCC(C(=O)N3CCCCCC3)CC2)C1=O` (stereo in doubt) [Compound 16, 3-{2-[4-(azepane-1-carbonyl)piperidin-1-yl]-2-oxoethyl}-5-methyl-5-(naphthalen-2-yl)imidazolidine-2,4-dione], the “LDLR Fold (relative LDLR protein levels)” value in experiment [1] was 2.1 ± 1.2 Fold. On Biotinylated PCSK9, the Kd came to 3.88 µM, the kon was determined as 22800 M⁻¹ s⁻¹ and the koff was determined as 0.09 s⁻¹.

For `COc1ccccc1[C@H]1N=C(N2CCC(Cc3ccccc3)CC2)N=C2N=C(C)C=C(O)N21` (stereo in doubt) [Compound 52, 2-(4-benzylpiperidin-1-yl)-4-(2-methoxyphenyl)-8-methyl-4H-pyrimido[1,2-a][1,3,5]triazin-6-ol], in experiment [1], the “LDLR Fold (relative LDLR protein levels)” value is given as 0.7 Fold.

Take `C[C@H](NC(=O)[C@@H]1Cc2c([nH]c3ccccc23)[C@H]2c3ccccc3C(=O)N21)C(=O)NC1CCCC1` [Compound 1, (2S)—N-cyclopentyl-2-{[(11 S)-9-oxo-10,20-diazapentacyclo[11.7.0.0^2,^10.0^3,^8.0^14,^19]icosa-1(13),3,5,7,14,16,18-heptaen-11-yl]formamido}propanamide]: the “LDLR Fold (relative LDLR protein levels)” value in experiment [1] is 1.2 ± 0.2 Fold.

For `Cc1nn(CC(=O)N2CCc3c([nH]c4ccccc34)[C@H]2c2ccccn2)c(=O)c2ccccc12` [Compound 2, 4-methyl-2-{2-oxo-2-[1-(2-pyridinyl)-1,3,4,9-tetrahydro-2H-beta-carbolin-2-yl]ethyl}-1(2H)-phthalazinone], the “LDLR Fold (relative LDLR protein levels)” value in experiment [1] worked out at 1.0 ± 0.5 Fold.

`O=C(Cn1[nH]c(=O)c2ccccc2c1=O)Nc1ccc(N2C(=O)c3cccc4cccc(c34)C2=O)cc1` [Compound 4, 2-(1,4-dioxo-1,2,3,4-tetrahydrophthalazin-2-yl)-N-(4-{2,4-dioxo-3-azatricyclo[7.3.1.0^{5,13}]trideca-1(13),5,7,9,11-pentaen-3-yl}phenyl)acetamide]: in experiment [1], the “LDLR Fold (relative LDLR protein levels)” value worked out at 1.6 ± 0.2 Fold.

As to `CC(=O)N1CCC2(CC1)CC(=O)c1ccc(OCC(=O)N3CCc4ccccc43)cc1O2` [Compound 6, 1′-acetyl-7-[2-(2,3-dihydro-1H-indol-1-yl)-2-oxoethoxy]-3,4-dihydrospiro[1-benzopyran-2,4′-piperidin]-4-one], in experiment [1], the “LDLR Fold (relative LDLR protein levels)” value came out at 0.8 ± 0.3 Fold.

In the case of `O=C(c1cn(CCN2CCCCC2)nn1)N1CCC2(C=Cc3ccccc32)CC1` [Compound 9, 1′-{1-[2-(piperidin-1-yl)ethyl]-1H-1,2,3-triazole-4-carbonyl}spiro[indene-1,4′-piperidine]], the “LDLR Fold (relative LDLR protein levels)” value in experiment [1] is 0.4 ± 0.1 Fold.

As to `CC1(c2ccc3ccccc3c2)NC(=O)N(CC(=O)N2CCCCC2c2nc3ccccc3s2)C1=O` (stereo not drawn) [Compound 11, 3-{2-[2-(1,3-benzothiazol-2-yl)piperidin-1-yl]-2-oxoethyl}-5-methyl-5-(naphthalen-2-yl)imidazolidine-2,4-dione], in experiment [1], the “LDLR Fold (relative LDLR protein levels)” value is on record as 1.5 ± 0.4 Fold.

Turning to `CC1(c2ccc3ccccc3c2)NC(=O)N(CC(=O)N2CCCC(c3nc4ccccc4s3)C2)C1=O` (stereo not drawn) [Compound 12, 3-{2-[3-(1,3-benzothiazol-2-yl)piperidin-1-yl]-2-oxoethyl}-5-methyl-5-(naphthalen-2-yl)imidazolidine-2,4-dione], in experiment [1], the “LDLR Fold (relative LDLR protein levels)” value was 1.8 ± 0.6 Fold.

As to `CC1(c2ccc3ccccc3c2)NC(=O)N(CC(=O)N2CCC(c3nc4ccccc4s3)CC2)C1=O` (stereo not drawn) [Compound 13, 3-{2-[4-(1,3-benzothiazol-2-yl)piperidin-1-yl]-2-oxoethyl}-5-methyl-5-(naphthalen-2-yl)imidazolidine-2,4-dione], in experiment [1], the “LDLR Fold (relative LDLR protein levels)” value is listed as 1.5 ± 0.7 Fold.

For the compound `CC1(c2ccc3ccccc3c2)NC(=O)N(CC(=O)N2CCC(C(=O)Nc3ccccc3)CC2)C1=O` (stereo not drawn) [Compound 14, 1-[2-[4-methyl-4-(2-naphthyl)-2,5-dioxo-imidazolidin-1-yl]acetyl]-N-phenyl-piperidine-4-carboxamide], in experiment [1], the “LDLR Fold (relative LDLR protein levels)” value stood at 2.0 ± 0.7 Fold. Further, at Biotinylated PCSK9, the Kd turned out to be 13.8 µM, the kon came out at 14500 M⁻¹ s⁻¹ and the koff amounted to 0.19 s⁻¹.

Consider `Cc1ccc(-c2cc(C(=O)N3CCc4c([nH]c5ccccc45)C3c3ccccn3)[nH]n2)s1` (stereo not drawn) [Compound 25, 2-{[3-(5-methyl-2-thienyl)-1H-pyrazol-5-yl]carbonyl}-1-(2-pyridinyl)-2,3,4,9-tetrahydro-1H-beta-carboline], for which the “LDLR Fold (relative LDLR protein levels)” value in experiment [1] was 1.1 Fold.

Regarding `Cc1cccc(C2c3[nH]c4ccccc4c3CCN2C(=O)CCCN2CCCCC2=O)n1` (stereo not drawn) [Compound 28, 1-{4-[1-(6-methylpyridin-2-yl)-1H,2H,3H,4H,9H-pyrido[3,4-b]indol-2-yl]-4-oxobutyl}piperidin-2-one], the “LDLR Fold (relative LDLR protein levels)” value in experiment [1] amounted to 1.0 Fold.

For the compound `COc1ccccc1C1N=C(Nc2cccc(C)c2C)N=C2N=C(C)C=C(O)N21` (stereo not drawn) [Compound 32, 2-[(2,3-dimethylphenyl)amino]-4-(2-methoxyphenyl)-8-methyl-4H-pyrimido[1,2-a][1,3,5]triazin-6-ol], the “LDLR Fold (relative LDLR protein levels)” value in experiment [1] amounted to 0.8 Fold.

For the compound `COc1ccccc1[C@H]1N=C(N2CCN(c3cccc(Cl)c3)CC2)N=C2N=C(C)C=C(O)N21` [Compound 33, 2-[4-(3-chlorophenyl)piperazin-1-yl]-4-(2-methoxyphenyl)-8-methyl-1,4-dihydro-6H-pyrimido[1,2-a][1,3,5]triazin-6-ol], the “LDLR Fold (relative LDLR protein levels)” value in experiment [1] is 1.0 Fold.

Consider `O=C(CN1CCN(c2nnc(-c3ccccc3)c3ccccc23)CC1)N1CCCC1` [Compound 35, 2-[4-(4-phenylphthalazin-1-yl)piperazin-1-yl]-1-(pyrrolidin-1-yl)ethan-1-one], for which the “LDLR Fold (relative LDLR protein levels)” value in experiment [1] was found to be 0.9 Fold.

For the compound `Cc1ccc(-c2nnc(N3CCN(C(=O)CN4C(=O)c5ccccc5C4=O)CC3)c3ccccc23)cc1` [Compound 36, 2-(2-{4-[4-(4-methylphenyl)phthalazin-1-yl]piperazin-1-yl}-2-oxoethyl)-2,3-dihydro-1H-isoindole-1,3-dione], the “LDLR Fold (relative LDLR protein levels)” value in experiment [1] amounted to 0.8 Fold.

`Cc1ccc(-c2nnc(N3CCN(C(=O)Cn4c(=O)n(C)c5ccccc54)CC3)c3ccccc23)cc1` [Compound 37, 1-methyl-3-(2-{4-[4-(4-methylphenyl)phthalazin-1-yl]piperazin-1-yl}-2-oxoethyl)-2,3-dihydro-1H-1,3-benzodiazol-2-one]: in experiment [1], the “LDLR Fold (relative LDLR protein levels)” value worked out at 1.0 Fold.

On to `O=C(CN1C(=O)c2ccccc2C1=O)N1CCN(c2nnc(-c3ccccc3)c3ccccc23)CC1` [Compound 38, 2-{2-oxo-2-[4-(4-phenylphthalazin-1-yl)piperazin-1-yl]ethyl}-2,3-dihydro-1H-isoindole-1,3-dione], for which the “LDLR Fold (relative LDLR protein levels)” value in experiment [1] stood at 0.9 Fold.

On to `Cc1ccc(-c2nnc(N3CCN(C(=O)c4ccco4)CC3)c3ccccc23)cc1` [Compound 39, 1-[4-(furan-2-carbonyl)piperazin-1-yl]-4-(4-methylphenyl)phthalazine], for which the “LDLR Fold (relative LDLR protein levels)” value in experiment [1] is 0.9 Fold.

With `CC1CCN(CC(=O)N2CCN(c3nnc(-c4ccccc4)c4ccccc34)CC2)CC1` [Compound 40, 2-(4-methylpiperidin-1-yl)-1-[4-(4-phenylphthalazin-1-yl)piperazin-1-yl]ethan-1-one], the “LDLR Fold (relative LDLR protein levels)” value in experiment [1] turned out to be 0.9 Fold.

For `c1ccc2c(N3CCN(Cc4ccc5c(c4)OCO5)CC3)nnc(Cc3ccncc3)c2c1` [Compound 41, 1-{4-[(2H-1,3-benzodioxol-5-yl)methyl]piperazin-1-yl}-4-[(pyridin-4-yl)methyl]phthalazine], in experiment [1], the “LDLR Fold (relative LDLR protein levels)” value turned out to be 0.7 Fold.

For the compound `O=C(CN1CCOCC1)N1CCN(c2nnc(-c3ccccc3)c3ccccc23)CC1` [Compound 43, 2-(morpholin-4-yl)-1-[4-(4-phenylphthalazin-1-yl)piperazin-1-yl]ethan-1-one], the “LDLR Fold (relative LDLR protein levels)” value in experiment [1] is 0.9 Fold.

In the case of `Cc1cc(C(=O)N2CCCC(C(=O)Nc3ccccc3)C2)c2ccccc2n1` (stereo not drawn) [Compound 51, 1-(2-methylquinoline-4-carbonyl)-N-phenylpiperidine-3-carboxamide], the “LDLR Fold (relative LDLR protein levels)” value in experiment [1] is 1.2 Fold.

(Values after patent US12419888B2, “Methods of treating elevated plasma cholesterol” (INSTITUT DE CARDIOLOGIE DE MONTREAL, priority 2020, dated 2025).)
